Assay results: patent publication US20240041042A1, “1-(PYRIDYL)-5-AZINYLPYRAZOLE DERIVATIVES, AND THEIR USE FOR CONTROL OF UNDESIRED PLANT GROWTH” (Bayer Aktiengesellschaft, priority 2020, published 2024)
Where two headings read alike, the source gives them in different places.

Assays:
Format in all cases: in vivo
Zea mays (ZEAMX) [1] = conditions: pre-emergence, crop plant compatibility, in comparison to untreated controls
Summary of the method: (§1)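 Crop injury rated visually in percent against untreated plants roughly 3 weeks after treatment (0% no effect, 100% plants dead). Compounds, as WP or EC with 0.5% additive in 600 l/ha water, were applied to the covering soil right after sowing; greenhouse growth. Suffixes a, b, c denote different dosages.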

Oryza sativa (ORYSA) [2] = conditions: pre-emergence, crop plant compatibility, in comparison to untreated controls
Summary of the method: as §1

[3] = test system: Triticum aestivum (TRZAS); conditions: pre-emergence, crop plant compatibility, in comparison to untreated controls
Summary of the method: as §1

Brassica napus (BRSNW) = conditions: crop plant compatibility, in comparison to untreated controls
Summary of the method: as §1

Zea mays (ZEAMX) [4] = conditions: crop plant compatibility, effect vs untreated controls
Summary of the method: (§2)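 Foliar application at the one-leaf stage: WP/EC formulation, 0.5% additive, 600 l/ha water. Greenhouse-grown in sandy loam. Endpoint is visual % injury relative to untreated controls at about 3 weeks.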

Oryza sativa (ORYSA) [5] = conditions: crop plant compatibility, effect in comparison to untreated controls
Summary of the method: as §2

[6] = test system: Triticum aestivum (TRZAS); conditions: crop plant compatibility, effect vs untreated controls
Summary of the method: as §2

Viola tricolor (VIOTR) [7] = test: Pre-emergence herbicidal action against VIOTR
Summary of the method: (§3)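 Dosages of 320 g/ha or less; pre-emergence; WP or EC in aqueous spray, 0.5% additive, 600 l/ha; greenhouse; visual % effect after ~3 wk relative to control pots.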

[8] = test system: Alopecurus myosuroides (ALOMY); test: Post-emergence herbicidal action against ALOMY; conditions: 320 g/ha, visual rating about 3 weeks after treatment vs untreated controls (100% = plants have died, 0% = like control plants)
Summary of the method: (§4)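 Values are percent visual activity (0% like control, 100% plants dead) after about 3 weeks in the greenhouse. Treatment: post-emergence spray at one-leaf stage, 600 l/ha spray volume, 0.5% additive, doses 320 g/ha or lower.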

Setaria viridis (SETVI) [9] = test: Pre-emergence herbicidal action against SETVI; conditions: dosage 320 g/ha
Summary of the method: as §3

[10] = test system: Abutilon theophrasti (ABUTH); test: Post-emergence herbicidal action against ABUTH; conditions: 320 g/ha, visual rating about 3 weeks after treatment vs untreated controls (100% = plants have died, 0% = like control plants)
Summary of the method: as §4

Avena fatua (AVEFA) [11] = test: Pre-emergence herbicidal action against AVEFA; conditions: 320 g/ha, visual scoring after about 3 weeks vs untreated controls
Summary of the method: as §3

Lolium rigidum (LOLRI) = test: Post-emergence herbicidal action against LOLRI; conditions: dosage 320 g/ha
Summary of the method: as §4

Viola tricolor (VIOTR) [12] = test: Post-emergence herbicidal action against VIOTR; conditions: 320 g/ha
Summary of the method: as §4

[13] = test system: Alopecurus myosuroides (ALOMY); test: Pre-emergence herbicidal action against ALOMY; conditions: 320 g/ha; scored visually after about 3 weeks; 100% = plants have died
Summary of the method: as §3

[14] = test system: Amaranthus retroflexus (AMARE); test: Pre-emergence herbicidal action against AMARE; conditions: 320 g/ha, visual scoring after about 3 weeks vs untreated controls
Summary of the method: as §3

[15] = test system: Polygonum convolvulus (POLCO); test: Post-emergence herbicidal action against POLCO
Summary of the method: as §4

[16] = test system: Echinochloa crus-galli (ECHCG); test: Post-emergence herbicidal action against ECHCG
Summary of the method: as §4

[17] = test system: Amaranthus retroflexus (AMARE); test: Post-emergence herbicidal action against AMARE
Summary of the method: as §4

Setaria viridis (SETVI) [18] = test: Post-emergence herbicidal action against SETVI; conditions: dosage 320 g/ha
Summary of the method: as §4

Avena fatua (AVEFA) [19] = test: Post-emergence herbicidal action against AVEFA; conditions: visual rating about 3 weeks after treatment
Summary of the method: as §4

[20] = test system: Verconica persica (VERPE); test: Post-emergence herbicidal action against VERPE; conditions: 320 g/ha, VERPE
Summary of the method: as §4

[21] = test system: Polygonum convolvulus (POLCO); test: Pre-emergence herbicidal action against POLCO; conditions: dosage 320 g/ha
Summary of the method: as §3

[22] = test system: Digitaria sanguinalis (DIGSA); test: Pre-emergence herbicidal action against DIGSA; conditions: dosage 320 g/ha
Summary of the method: as §3

Structure (SMILES) | Pre-emergence action against ZEAMX in % (Zea mays (ZEAMX) [1]; 80 g/ha) [%] | Pre-emergence action against ORYSA in % (Oryza sativa (ORYSA) [2]; 80 g/ha) [%] | Pre-emergence action against ORYSA in % (Oryza sativa (ORYSA) [2]; 320 g/ha) [%] | Pre-emergence action against TRZAS in % ([3]; 80 g/ha) [%] | Pre-emergence action against BRSNW in % (Brassica napus (BRSNW); 80 g/ha) [%] | Post-emergence action against ZEAMX in % (Zea mays (ZEAMX) [4]; 80 g/ha) [%] | Post-emergence action against ZEAMX in % (Zea mays (ZEAMX) [4]; 320 g/ha) [%] | Post-emergence action against TRZAS in % ([6]; 80 g/ha) [%] | Pre-emergence action against ALOMY [13] [%] | Pre-emergence action against AMARE in % [14] [%] | Post-emergence action against VERPE in % [20] [%] | other results
O=C(O)C1CCN(C(=O)COc2nn(-c3ccccn3)c(-c3cncc(F)c3)c2Br)C1 (racemic) [Example I-63] | 10 | 0 | 0 | 0 | 0 | 0 | 10 | 0 |  |  |  | Pre-emergence action against ZEAMX in % (Zea mays (ZEAMX) [1]; 320 g/ha): 10%; Pre-emergence action against TRZAS in % ([3]; 320 g/ha): 0%; Pre-emergence action against BRSNW in % (Brassica napus (BRSNW); 320 g/ha): 20%; Post-emergence action against ORYSA in % (Oryza sativa (ORYSA) [5]; 80 g/ha): 0%; Post-emergence action against ORYSA in % (Oryza sativa (ORYSA) [5]; 320 g/ha): 10%; Post-emergence action against TRZAS in % ([6]; 320 g/ha): 0%
O=C(O)COc1nn(-c2ncccc2Cl)c(-c2ccc(F)nc2)c1Br [Example I-26] | 0 | 0 |  | 0 | 20 | 0 |  |  | 100 | 100 | 80 | Pre-emergence action against VIOTR in % (Viola tricolor (VIOTR) [7]; 320 g/ha, Viola tricolor): 100%; Pre-emergence action against VIOTR in % (Viola tricolor (VIOTR) [7]; dosage 80 g/ha): 100%; Post-emergence action against ALOMY in % [8]: 90%; Pre-emergence action against SETVI in % (Setaria viridis (SETVI) [9]): 100%; Post-emergence action against ABUTH in % [10]: 90%; Pre-emergence action against AVEFA in % (Avena fatua (AVEFA) [11]): 90%; Post-emergence action against LOLRI in % (Lolium rigidum (LOLRI)): 80%; Post-emergence action against VIOTR in % (Viola tricolor (VIOTR) [12]): 80%; Post-emergence action against POLCO in % ([15]; dosage 80 g/ha): 80%; Post-emergence action against POLCO in % ([15]; dosage 320 g/ha): 80%; Post-emergence action against ECHCG in % ([16]; dosage 80 g/ha): 80%; Post-emergence action against ECHCG in % ([16]; dosage 320 g/ha): 80%; Post-emergence action against AMARE in % ([17]; 80 g/ha, visual rating about 3 weeks after treatment vs untreated controls (100% = plants have died, 0% = like control plants)): 80%; Post-emergence action against AMARE in % ([17]; 320 g/ha, visual rating about 3 weeks after treatment): 80%; Post-emergence action against SETVI in % (Setaria viridis (SETVI) [18]): 90%; Post-emergence action against AVEFA in % (Avena fatua (AVEFA) [19]; 80 g/ha): 100%; Post-emergence action against AVEFA in % (Avena fatua (AVEFA) [19]; 320 g/ha): 100%; Pre-emergence action against POLCO in % [21]: 90%
COC(=O)C=CC(C)NC(=O)COc1nn(-c2ccccn2)c(-c2ccc(F)nc2)c1Br (centres unmarked) [Example I-297] | 10 | 10 | 20 |  | 20 |  | 0 | 10 | 80 | 80 | 80 | Pre-emergence action against DIGSA in % [22]: 80%
